Reference: patent US12492181B2, “Gem-disubstituted piperidine melanocortin subtype-2 receptor (MC2R) antagonists and uses thereof” (Crinetics Pharmaceuticals, Inc., priority 2019, dated 2025)

What follows are compounds tested against T1, hMC2 receptor (crude hMC2R membranes from CRE-bla-CHO-K1 cells stably expressing hMC2 receptor and hMRAP accessory protein) (Homo sapiens, UniProt Q01718) (assay: hMC2 membrane binding assay ([125I]ACTH (1-39) Tyr23, SPA)). Conditions: displacement of 0.2 nM [125I]ACTH (1-39) Tyr23 from hMC2R membranes, 1.5 hours at room temperature; read-out: MC2R binding potency.
T1 construct: crude membrane fractions
T1 sequence (Q01718 whole entry): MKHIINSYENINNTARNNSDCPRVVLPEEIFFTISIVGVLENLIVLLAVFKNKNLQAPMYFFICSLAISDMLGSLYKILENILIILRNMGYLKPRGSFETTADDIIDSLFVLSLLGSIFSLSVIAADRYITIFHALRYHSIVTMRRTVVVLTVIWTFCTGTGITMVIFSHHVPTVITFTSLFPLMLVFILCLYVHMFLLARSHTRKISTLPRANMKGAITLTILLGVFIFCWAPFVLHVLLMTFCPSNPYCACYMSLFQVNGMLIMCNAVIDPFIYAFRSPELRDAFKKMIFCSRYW
T1 sequence (Q8TCY5 whole entry partner): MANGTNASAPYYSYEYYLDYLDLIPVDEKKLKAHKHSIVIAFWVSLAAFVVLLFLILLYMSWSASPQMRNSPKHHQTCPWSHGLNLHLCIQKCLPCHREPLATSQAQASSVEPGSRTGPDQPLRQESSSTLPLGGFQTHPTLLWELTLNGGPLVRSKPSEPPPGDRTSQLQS
Procedure, shortened: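 Ki values come from non-linear regression of SPA scintillation counts, with compounds displacing [125I]ACTH(1-39) Tyr23. Membranes come from CRE-bla-CHO-K1 cells stably expressing hMC2 receptor together with hMRAP. They are preincubated with WGA-coated PVT SPA beads in 50 mM HEPES pH 7.4 with 0.20% BSA, Mg2+, Ca2+ and protease inhibitors.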

`CCOc1ccccc1-c1ccc(C2(NC(=O)C3CN(C)C3)CCN(c3ccc(C(F)(F)F)cc3C#N)CC2)cn1` [Compound 2-35, N-{1-[2-cyano-4-(trifluoromethyl)phenyl]-4-[6-(2-ethoxyphenyl)pyridin-3-yl]piperidin-4-yl}-1-methylazetidine-3-carboxamide] and `CCOc1ncccc1-c1ccc(C2(NC(=O)N3CC[C@@H](NC)C3)CCN(c3ccc(C(F)(F)F)cc3C#N)CC2)cn1` [Compound 2-21] cannot be ordered by Ki: under 10 nM for the first, under 10 nM for the second.

First: CCOc1ncccc1-c1ccc(C2(C(=O)NCCN(C)C)CCN(c3ccc(C(F)(F)F)cc3C#N)CC2)cn1 [Compound 1-15, 1-[2-cyano-4-(trifluoromethyl)phenyl]-N-[2-(dimethylamino)ethyl]-4-{2′-ethoxy-[2,3′-bipyridin]-5-yl}piperidine-4-carboxamide]
Second: CCOc1ncccc1-c1ccc(C2(C(=O)NC[C@H](C)N(C)C)CCN(c3ccc(C(F)(F)F)cc3C#N)CC2)cn1 [Compound 1-332, 1-[2-cyano-4-(trifluoromethyl)phenyl]-N-[(2S)-2-(dimethylamino)propyl]-4-{2′-ethoxy-[2,3′-bipyridin]-5-yl}piperidine-4-carboxamide]
The Ki of the first is higher: 10 to 100 nM for the first, under 10 nM for the second. The second binds more tightly here.

`CN1CC[C@@H](NC(=O)C2(c3ccc(-c4cccc(F)c4O)nc3)CCN(c3ccc(C(F)(F)F)cc3C#N)CC2)C1` [Compound 1-129, 1-[2-cyano-4-(trifluoromethyl)phenyl]-4-[6-(3-fluoro-2-hydroxyphenyl)pyridin-3-yl]-N-[(3R)-1-methylpyrrolidin-3-yl]piperidine-4-carboxamide] and `Cc1ncncc1-c1ccc(C2(C(=O)N[C@@H]3CCN(C)C3)CCN(c3ccc(C(F)(F)F)cc3C#N)CC2)cn1` [Compound 1-105, 1-[2-cyano-4-(trifluoromethyl)phenyl]-4-[6-(4-methylpyrimidin-5-yl)pyridin-3-yl]-N-[(3R)-1-methylpyrrolidin-3-yl]piperidine-4-carboxamide] fall in the same range of Ki: 10 to 100 nM for the first, 10 to 100 nM for the second.

First: COc1ccccc1-c1ccc(C2(C(=O)N[C@H]3CCN(C)C3)CCN(c3ccc(Cl)cc3C#N)CC2)cn1 [Compound 1-91, 1-(4-chloro-2-cyanophenyl)-4-[6-(2-methoxyphenyl)pyridin-3-yl]-N-[(3S)-1-methylpyrrolidin-3-yl]piperidine-4-carboxamide]
Second: COc1cccnc1-c1ccc(C2(C(=O)N[C@H]3CCN(C)C3)CCN(c3ccc(C(F)(F)F)cc3C#N)CC2)cn1 [Compound 1-178, 1-[2-cyano-4-(trifluoromethyl)phenyl]-4-{3′-methoxy-[2,2′-bipyridin]-5-yl}-N-[(3S)-1-methylpyrrolidin-3-yl]piperidine-4-carboxamide]
The Ki of the first is lower: under 10 nM for the first, 10 to 100 nM for the second. The first binds more tightly here.

First: CN1[C@@H]2CC[C@H]1[C@@H](NC(=O)C1(c3ccc(-c4cccn4C)nc3)CCN(c3ccc(C(F)(F)F)cc3C#N)CC1)C2 (racemic) [Compound 1-251, rac-1-[2-cyano-4-(trifluoromethyl)phenyl]-4-[6-(1-methyl-1H-pyrrol-2-yl)pyridin-3-yl]-N-[(1S,2S,4R)-7-methyl-7-azabicyclo[2.2.1]heptan-2-yl]piperidine-4-carboxamide]
Second: CO[C@@H]1CN(C)C[C@@H]1NC(=O)C1(c2ccc(-c3cccn3C)nc2)CCN(c2ccc(C(F)(F)F)cc2C#N)CC1 (racemic) [Compound 1-267, rac-1-[2-cyano-4-(trifluoromethyl)phenyl]-N-[(3S,4R)-4-methoxy-1-methylpyrrolidin-3-yl]-4-[6-(1-methyl-1H-pyrrol-2-yl)pyridin-3-yl]piperidine-4-carboxamide]
The Ki of the first is higher: 10 to 100 nM for the first, under 10 nM for the second.

`CCOc1ncccc1-c1ccc(C2(C(=O)NCCCN)CCN(c3ccc(C(F)(F)F)cc3C#N)CC2)cc1` [Compound 1-5, N-(3-aminopropyl)-1-[2-cyano-4-(trifluoromethyl)phenyl]-4-[4-(2-ethoxypyridin-3-yl)phenyl]piperidine-4-carboxamide] and `CCOc1ncccc1-c1ccc(C2(OC(=O)NCCN(C)C)CCN(c3ccc(C(F)(F)F)cc3C#N)CC2)cc1` [Compound 2-2, 1-[2-cyano-4-(trifluoromethyl)phenyl]-4-[4-(2-ethoxypyridin-3-yl)phenyl]piperidin-4-yl N-[2-(dimethylamino)ethyl]carbamate] fall in the same range of Ki: 10 to 100 nM for the first, 10 to 100 nM for the second.

`COc1ccccc1-c1ccc(C2(C(=O)N[C@@H]3CN4CCC3CC4)CCN(c3ccc(C(F)(F)F)cc3C#N)CC2)cn1` [Compound 1-218, N-[(3S)-1-azabicyclo[2.2.2]octan-3-yl]-1-[2-cyano-4-(trifluoromethyl)phenyl]-4-[6-(2-methoxyphenyl)pyridin-3-yl]piperidine-4-carboxamide] and `COc1ccccc1-c1ccc(C2(C(=O)NCCN3CCC3)CCN(c3ccc(C(F)(F)F)cc3C#N)CC2)cn1` [Compound 1-245, N-[2-(azetidin-1-yl)ethyl]-1-[2-cyano-4-(trifluoromethyl)phenyl]-4-[6-(2-methoxyphenyl)pyridin-3-yl]piperidine-4-carboxamide] cannot be ordered by Ki: under 10 nM for the first, under 10 nM for the second.

`COc1ncccc1-c1ccc(C2(C(=O)NCCN(C)C)CCN(c3ccc(C(F)(F)F)cc3Cl)CC2)cn1` [Compound 1-273, 1-[2-chloro-4-(trifluoromethyl)phenyl]-N-[2-(dimethylamino)ethyl]-4-{2′-methoxy-[2,3′-bipyridin]-5-yl}piperidine-4-carboxamide] and `CCOc1ccccc1-c1ccc(C2(C(=O)NCCN(C)C)CCN(c3ccc(C(F)(F)F)cc3Cl)CC2)cn1` [Compound 1-228, 1-[2-chloro-4-(trifluoromethyl)phenyl]-N-[2-(dimethylamino)ethyl]-4-[6-(2-ethoxyphenyl)pyridin-3-yl]piperidine-4-carboxamide] cannot be ordered by Ki: under 10 nM for the first, under 10 nM for the second.

`CCOc1ncccc1-c1ccc(C2(C(=O)N[C@@H](C)CNC)CCN(c3ccc(C(F)(F)F)cc3F)CC2)cn1` [Compound 1-321, 4-{2′-ethoxy-[2,3′-bipyridin]-5-yl}-1-[2-fluoro-4-(trifluoromethyl)phenyl]-N-[(2S)-1-(methylamino)propan-2-yl]piperidine-4-carboxamide] and `CNCCNC(=O)C1(c2ccc(-c3cccnc3OC)nc2)CCN(c2ccc(C(F)(F)F)cc2F)CC1` [Compound 1-272, 1-[2-fluoro-4-(trifluoromethyl)phenyl]-4-{2′-methoxy-[2,3′-bipyridin]-5-yl}-N-[2-(methylamino)ethyl]piperidine-4-carboxamide] cannot be ordered by Ki: under 10 nM for the first, under 10 nM for the second.

Compared with `Cn1cccc1-c1ccc(C2(C(=O)N[C@H]3C[C@H](N)C3)CCN(c3ccc(C(F)(F)F)cc3C#N)CC2)cn1` [Compound 1-234, 1-[2-cyano-4-(trifluoromethyl)phenyl]-4-[6-(1-methyl-1H-pyrrol-2-yl)pyridin-3-yl]-N-[(1R,3R)-3-aminocyclobutyl]piperidine-4-carboxamide], `CN1CC(F)(F)C[C@@H]1CNC(=O)C1(c2ccc(-c3cccn3C)nc2)CCN(c2ccc(C(F)(F)F)cc2C#N)CC1` [Compound 1-280, 1-[2-cyano-4-(trifluoromethyl)phenyl]-N-{[(2R)-4,4-difluoro-1-methylpyrrolidin-2-yl]methyl}-4-[6-(1-methyl-1H-pyrrol-2-yl)pyridin-3-yl]piperidine-4-carboxamide] is higher in Ki: 10 to 100 nM for the first, 100 to 1000 nM for the second.

`CCOc1ncccc1-c1ccc(C2(NCCO)CCN(c3ccc(C(F)(F)F)cc3C#N)CC2)cn1` [Compound 2-14, 2-(4-{2′-ethoxy-[2,3′-bipyridin]-5-yl}-4-[(2-hydroxyethyl)amino]piperidin-1-yl)-5-(trifluoromethyl)benzonitrile] and `CCOc1ncccc1-c1ccc(C2(NCCNC)CCN(c3ccc(C(F)(F)F)cc3C#N)CC2)cn1` [Compound 2-15, 2-(4-{2′-ethoxy-[2,3′-bipyridin]-5-yl}-4-{[2-(methylamino)ethyl]amino}piperidin-1-yl)-5-(trifluoromethyl)benzonitrile] fall in the same range of Ki: 10 to 100 nM for the first, 10 to 100 nM for the second.

`CCOc1ncccc1-c1ncc(C2(C(=O)N[C@@H]3CCN(C)C3)CCN(c3ccc(C(F)(F)F)cc3C#N)CC2)cc1F` [Compound 1-108, 1-[2-cyano-4-(trifluoromethyl)phenyl]-4-{2′-ethoxy-3-fluoro-[2,3′-bipyridin]-5-yl}-N-[(3R)-1-methylpyrrolidin-3-yl]piperidine-4-carboxamide] and `CCOc1ncccc1-c1ccc(C2(C(=O)N[C@@H]3CCN(C)C3)CCN(c3ccc(C(F)(F)F)nc3C#N)CC2)cn1` [Compound 1-24, 1-[2-cyano-6-(trifluoromethyl)pyridin-3-yl]-4-{2′-ethoxy-[2,3′-bipyridin]-5-yl}-N-[(3R)-1-methylpyrrolidin-3-yl]piperidine-4-carboxamide] cannot be ordered by Ki: under 10 nM for the first, under 10 nM for the second.

`CCOc1ncccc1-c1ccc(C2(C(=O)NC[C@H](CO)N(C)C)CCN(c3ccc(C(F)(F)F)cc3C#N)CC2)cn1` [Compound 1-45, 1-[2-cyano-4-(trifluoromethyl)phenyl]-N-[(2R)-2-(dimethylamino)-3-hydroxypropyl]-4-{2′-ethoxy-[2,3′-bipyridin]-5-yl}piperidine-4-carboxamide] and `CCOc1ncccc1-c1ccc(C2(C(=O)NC3CN(C)CC3O)CCN(c3ccc(C(F)(F)F)cc3C#N)CC2)cn1` (single isomer, unassigned) [Compound 1-46, 1-[2-cyano-4-(trifluoromethyl)phenyl]-4-{2′-ethoxy-[2,3′-bipyridin]-5-yl}-N-[(3R,4R)*-4-hydroxy-1-methylpyrrolidin-3-yl]piperidine-4-carboxamide] cannot be ordered by Ki: under 10 nM for the first, under 10 nM for the second.

With `CCOc1ncccc1-c1ccc(C2(NC(=O)CCN)CCN(c3ccc(C(F)(F)F)cc3C#N)CC2)cn1` [Compound 2-4, 3-amino-N-{1-[2-cyano-4-(trifluoromethyl)phenyl]-4-{2′-ethoxy-[2,3′-bipyridin]-5-yl}piperidin-4-yl}propanamide] the Ki was under 10 nM.
